Data taken from patent US12629341B2 (priority 2019, dated 2026).

What was measured:
PrP^Sc [1] = molecular target: PrP^Sc (Mesocricetus auratus, UniProt P04273); set-up: species or system Syrian hamster; conditions: Hyper-hamster PrPSc pellet
PrP^Sc [2] = molecular target: PrP^Sc (Mus musculus, UniProt P04925); conditions: FVB-RML mouse PrPSc pellet
PrP^Sc (Mus musculus, UniProt P04925), sequence (P04925 23-230 limits assumed): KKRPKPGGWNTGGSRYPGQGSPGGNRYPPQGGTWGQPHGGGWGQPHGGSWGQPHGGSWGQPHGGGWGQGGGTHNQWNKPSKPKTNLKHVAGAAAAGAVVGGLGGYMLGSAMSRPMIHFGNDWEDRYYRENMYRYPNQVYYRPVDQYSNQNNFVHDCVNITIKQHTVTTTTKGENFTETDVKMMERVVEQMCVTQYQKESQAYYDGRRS

PrP^Sc (Mesocricetus auratus, UniProt P04273), sequence (P04273 23-231 limits assumed): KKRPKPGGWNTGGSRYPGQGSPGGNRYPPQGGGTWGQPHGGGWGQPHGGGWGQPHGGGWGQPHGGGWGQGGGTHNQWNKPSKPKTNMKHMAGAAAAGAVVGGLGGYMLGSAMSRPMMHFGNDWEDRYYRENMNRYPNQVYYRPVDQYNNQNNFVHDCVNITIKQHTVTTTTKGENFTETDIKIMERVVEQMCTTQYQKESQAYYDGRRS

## CCCCCCCCCCCC(=O)N(C)CC(=O)[O-].[Na+] [Sarkosyl]
PrP^Sc [1]
  calculated amount of lipid: DG: 0
  calculated amount of lipid: FA (free fatty acid): 0
  calculated amount of lipid: FC (free cholesterol): 24.35
  calculated amount of lipid: PC (phosphatidylcholine): 21.46
  calculated amount of lipid: PE (phosphatidylethanolamine): 8.57
  calculated amount of lipid: PI (phosphatidylinositol): 0
  calculated amount of lipid: PS (phosphatidylserine): 2.23
  calculated amount of lipid: SM (sphingomyelin): 3.12
PrP^Sc [2]
  calculated amount of lipid: CE (cholesterol esters): 3.54
  calculated amount of lipid: DG: 0
  calculated amount of lipid: FA (free fatty acid): 0
  calculated amount of lipid: FC (free cholesterol): 31.17
  calculated amount of lipid: PC (phosphatidylcholine): 16.80
  calculated amount of lipid: PE (phosphatidylethanolamine): 21.83
  calculated amount of lipid: PI (phosphatidylinositol): 1.92
  calculated amount of lipid: PS (phosphatidylserine): 8.05
  calculated amount of lipid: SM (sphingomyelin): 1.58
  calculated amount of lipid: TG (triglycerides): 4.29
